Measurements published in patent US20250197408A1, “CRYSTALLINE FORMS AND SALTS OF A PI3K INHIBITOR AND METHODS OF MAKING AND METHODS OF USE THEREOF” (Totus Medicines Inc., priority 2022, published 2025).

Experiments:
[1] = Solubility in 7 aqueous pH buffers and bio-relevant fluids at 37° C. (HPLC of supernatant; residual solids by XRPD); assay type: physicochemical
Experimental: 20 mg of the free base Form A of Compound I was weighed into a 20 mL glass vial. Amounts of the salts equivalent to 20 mg anhydrous free base were weighed into a glass vial. 10 mL of solubility medium was added. The resulting suspensions/solutions were stirred at 37° C. at 400 rpm and sampled at 2 hours and at 24 hours, respectively. The samples were centrifuged at 37° C. at 14,000 rpm for 5 min. Supernatants were analyzed by HPLC and pH meter for solubility and pH value, respectively. Residual solids (wet cakes) from the 24 hours samples were also characterized by XRPD to determine physical form.
Residual solids after the solubility test were analyzed by XRPD.

[2] = Dynamic vapor sorption (DVS) analysis at 25° C.; assay type: physicochemical
Experimental: In one embodiment, the crystalline forms are characterized by Dynamic Vapor Sorption (DVS). The DVS profile is typically expressed by a diagram plotting the sample relative humidity (RH) versus the change in mass (%). The DVS profile provides information on hygroscopicity of the crystalline form at different RH conditions.
A DVS (dynamic vapor sorption) analysis at 25° C. was carried out on Form A** of Compound I benzenesulfonate salt as shown in FIG. 3D.

[3] = Variable humidity XRPD (VH-XRPD) experiments at 25° C.; assay type: physicochemical; conditions: VH-XRPD and DVS isotherms
Experimental: Variable humidity XRPD (VH-XRPD) experiments.
XRPD analysis was carried out in each specific relative humidity at 25° C. Step: 40% RH (initial)-60% RH (4 h)-80% RH (4 h)-40% RH (4 h)-20% RH (4 h)-0% RH (4 h)-40% RH (4 h).

UM-UC-3 (bladder) = test: Cell proliferation assay (CellTiter-Glo, 3 days treatment), UM-UC-3; assay type: cell-based; conditions: read-out: Absolute IC50
Description: (§1) The cell lines tested included as follows: UM-UC-3 (bladder), KYSE-410 (HN/Esophagus), SW1463 (rectum), Calu-1 (Lung), NCI-H358 (Lung), SW837 (Rectum), SW756 (Cervix), NCI-H2122 (Lung), NCI-H1373 (Lung), NCI-H1792 (Lung), NCI-H23 (Lung), MIA PaCa-2 (Pancreas), and HC44.
(§2) Cells were recovered and maintained in appropriate culture media. The cells were harvested respectively during the logarithmic growth period. The cells were then resuspended and counted using a Vi cell counter (The cell viability be measured by trypan blue exclusion assay.). The cells were then diluted and 90 μL cell suspensions were used in 96-well plates according to plate map with final cell density. Two duplicate plates were set up. One is for day 0 reading (TO) and the other was cultured in incubator for reading at the end point. The incubated plates were incubated overnight in humidified incubator at 37° C. with 5% CO2.
(§3) At day 0, 10 μL culture medium to each well for TO reading. 10 μL of culture medium was added to each well for TO reading. Then, 50 μl CellTiter-Glo® Reagent was added to each well. […] Luminescence was then recorded using an EnVision Multi Label Reader. […]
(§4) For the endpoint CTG reading, 50 μL of CellTiter-Glo® Reagent were added to each well. […] Luminescence was then recorded using an EnVision Multi Label Reader. IC50's were determined for each cell line.

KYSE-410 (HN/Esophagus) = test: Cell proliferation assay (CellTiter-Glo, 3 days treatment), KYSE-410; assay type: cell-based; conditions: read-out: Absolute IC50
Description: as §1, §2, §3, §4

SW1463 (rectum) = test: Cell proliferation assay (CellTiter-Glo, 3 days treatment), SW1463; assay type: cell-based; conditions: read-out: Absolute IC50
Description: as §1, §2, §3, §4

Calu-1 (Lung) = test: Cell proliferation assay (CellTiter-Glo, 3 days treatment), Calu-1; assay type: cell-based; conditions: read-out: Absolute IC50
Description: as §1, §2, §3, §4

NCI-H358 (Lung) = test: Cell proliferation assay (CellTiter-Glo, 3 days treatment), NCI-H358; assay type: cell-based; conditions: NCI-H358 (Lung), 3 days treatment; read-out: Absolute IC50
Description: as §1, §2
At day 0, 10 μL culture medium to each well for TO reading. Then, 50 μl CellTiter-Glo® Reagent was added to each well. The contents were then mixed for 2 minutes on an orbital shaker to facilitate cell lysis. The plates were then allowed to incubate at room temperature for 10 minutes to stabilize luminescent signal. Luminescence was then recorded using an EnVision Multi Label Reader. The test compound Compound I, and a control cisplatin, where then diluted at various concentrations from a 10 mM stock solution. Compound I was diluted and 10 μL of each 10× compound I from working solutions for a concentration ranging from 10 μM to about 0.005 μM. Cisplatin was diluted to about […] to about 150 nM. The screening plates were then placed back into the incubator for the appropriate treatment time (3 days).
For the endpoint CTG reading, 50 μL of CellTiter-Glo® Reagent were added to each well. The contents were then mixed for 2 minutes on an orbital shaker to facilitate cell lysis. […] Luminescence was then recorded using an EnVision Multi Label Reader. IC50's were determined for each cell line.

SW837 (Rectum) = test: Cell proliferation assay (CellTiter-Glo, 3 days treatment), SW837; assay type: cell-based; conditions: read-out: Absolute IC50
Description: as §1, §2, §3, §4

SW756 (Cervix) = test: Cell proliferation assay (CellTiter-Glo, 3 days treatment), SW756; assay type: cell-based; conditions: read-out: Absolute IC50
Description: as §1, §2, §3, §4

NCI-H2122 (Lung) = test: Cell proliferation assay (CellTiter-Glo, 3 days treatment), NCI-H2122; assay type: cell-based; conditions: read-out: Absolute IC50
Description: as §1, §2, §3, §4

NCI-H1373 (Lung) = test: Cell proliferation assay (CellTiter-Glo, 3 days treatment), NCI-H1373; assay type: cell-based; conditions: read-out: Absolute IC50
Description: as §1, §2, §3, §4

NCI-H1792 (Lung) = test: Cell proliferation assay (CellTiter-Glo, 3 days treatment), NCI-H1792; assay type: cell-based; conditions: read-out: Absolute IC50
Description: as §1, §2, §3, §4

NCI-H23 (Lung) = test: Cell proliferation assay (CellTiter-Glo, 3 days treatment), NCI-H23; assay type: cell-based; conditions: read-out: Absolute IC50
Description: as §1, §2, §3, §4

MIA PaCa-2 (Pancreas) = test: Cell proliferation assay (CellTiter-Glo, 3 days treatment), MIA PaCa-2; assay type: cell-based; conditions: read-out: Absolute IC50
Description: as §1, §2, §3, §4

HC44 = test: Cell proliferation assay (CellTiter-Glo, 3 days treatment), HC44; assay type: cell-based; conditions: HCC44 (Lung), read-out: Absolute IC50
Description: as §1, §2, §3, §4

[4] = ES1, pH 1.2 HCl solution (0.1N), 37° C.
[5] = ES2, pH 4.5 acetate buffer (50 mM), 37° C.
[6] = ES3, pH 6.8 phosphate buffer (50 mM), 37° C.
[7] = ES4, pH 7.4 phosphate buffer (50 mM), 37° C.

SMILES: C=CC(=O)NCC(=O)N1CCN(Cc2cc3c(N4CCOCC4)nc(-c4cnc(NC(=O)OC)cc4C(F)(F)F)nn3c2)CC1.O=P(O)(O)O [Form A* of Compound I phosphate salt, Methyl (5-(6-((4-(acryloylglycyl)piperazin-1-yl)methyl)-4-morpholinopyrrolo[2,1-f][1,2,4]triazin-2-yl)-4-(trifluoromethyl)pyridin-2-yl) carbamate phosphate salt]
- solubility compared among forms ([1]; 37° C., 2 h and 24 h, 7 aqueous pH buffers and bio-relevant fluids): highest solubility
- Solubility for 2 h [1, 4]: 1200 µg/mL
- pH of supernatant, solubility for 2 h (pH) [1, 4]: (1.2)
- Solubility for 24 h [1, 4]: 1000 µg/mL
- pH of supernatant, solubility for 24 h (pH) [1, 4]: (1.0)
- Solubility for 2 h [1, 5]: >2000 µg/mL
- pH of supernatant, solubility for 2 h (pH) [1, 5]: (4.4)
- Solubility for 24 h [1, 5]: >2000 µg/mL
- pH of supernatant, solubility for 24 h (pH) [1, 5]: (4.4)
- Solubility for 2 h [1, 6]: 8.8 µg/mL
- pH of supernatant, solubility for 2 h (pH) [1, 6]: (6.6)
- Solubility for 24 h [1, 6]: 6.4 µg/mL
- pH of supernatant, solubility for 24 h (pH) [1, 6]: (6.5)
- Solubility for 2 h [1, 7]: 6.1 µg/mL
- pH of supernatant, solubility for 2 h (pH) [1, 7]: (7.2)
- Solubility for 24 h [1, 7]: 4.1 µg/mL
- pH of supernatant, solubility for 24 h (pH) [1, 7]: (7.1)
- Solubility for 2 h ([1]; ES5, SGF, pH 2.0, 37° C.): >2000 µg/mL
- pH of supernatant, solubility for 2 h (pH) ([1]; ES5, SGF, pH 2.0, 37° C.): (1.9)
- Solubility for 24 h ([1]; ES5, SGF, pH 2.0, 37° C.): >2000 µg/mL
- pH of supernatant, solubility for 24 h (pH) ([1]; ES5, SGF, pH 2.0, 37° C.): (1.8)
- Solubility for 2 h ([1]; ES6, FaSSIF-v1, pH 6.5, 37° C.): 26.8 µg/mL
- pH of supernatant, solubility for 2 h (pH) ([1]; ES6, FaSSIF-v1, pH 6.5, 37° C.): (6.2)
- Solubility for 24 h ([1]; ES6, FaSSIF-v1, pH 6.5, 37° C.): 21.1 µg/mL
- pH of supernatant, solubility for 24 h (pH) ([1]; ES6, FaSSIF-v1, pH 6.5, 37° C.): (6.1)
- Solubility for 2 h ([1]; ES7, FeSSIF-v1, pH 5.0, 37° C.): 1600 µg/mL
- pH of supernatant, solubility for 2 h (pH) ([1]; ES7, FeSSIF-v1, pH 5.0, 37° C.): (5.0)
- Solubility for 24 h ([1]; ES7, FeSSIF-v1, pH 5.0, 37° C.): 1700 µg/mL
- pH of supernatant, solubility for 24 h (pH) ([1]; ES7, FeSSIF-v1, pH 5.0, 37° C.): (4.9)
- maintenance of supersaturation ([1]; pH 4.5 buffer, 37° C.): can be maintained for a longer time than the crystalline Form B* of Compound I maleate salt
- hygroscopicity / water sorption behavior (DVS) [2]: slightly hygroscopic in <90% RH. Then it becomes hygroscopic
- relative humidity in which it converts to hydrate form (DVS) [2]: > 30 % RH
- relative humidity in which the form dehydrates (DVS) [2]: < 30 % RH
- solid form of the sample after the DVS test [2]: still the Form A* of Compound I phosphate salt
- water uptake (DVS) ([2]; from 40% to 95% RH): 3.3%
- relative humidity at which the form dehydrates and converts to anhydrate Form B of Compound I phosphate salt [3]: < 20 % RH

SMILES: N.N.[Cl][Pt][Cl] [cisplatin, reference compound]
- IC50 (UM-UC-3 (bladder)): 1.86 µM
- IC50 (KYSE-410 (HN/Esophagus)): 15.8 µM
- IC50 (SW1463 (rectum)): 12.2 µM
- IC50 (Calu-1 (Lung)): 10.2 µM
- IC50 (NCI-H358 (Lung)): 12.5 µM
- IC50 (SW837 (Rectum)): 42.5 µM
- IC50 (SW756 (Cervix)): 10.3 µM
- IC50 (NCI-H2122 (Lung)): 17.8 µM
- IC50 (NCI-H1373 (Lung)): 8.72 µM
- IC50 (NCI-H1792 (Lung)): 4.88 µM
- IC50 (NCI-H23 (Lung)): 3.58 µM
- IC50 (MIA PaCa-2 (Pancreas)): 7.03 µM
- IC50 (HC44): 7.96 µM
